Test results reported in patent US20080103158A1, “METHODS FOR TREATING DELAYING THE PROGRESSION OF ALZHEIMER'S DISEASE WITH HETEROCYCLIC COMPOUNDS” (ZENYAKU KOGYO KABUSHIKI KAISHA, priority 2006, published 2008).

System: amyloid β deposition in the hippocampus
Assay: Amyloid β deposition inhibitory activity: amyloid β immunohistochemistry of the hippocampus in senescene accelerated mice (SAMP8)
Assay type: in vivo
Conditions: hippocampus immunohistochemistry
Method: Senescene accelerated mice (SAMP8) (male, 8 months old at the beginning of the study) were used for experiment. Approximately 0.1 mg/kg/day of Compound 1 was given in drinking water. Eight weeks after the dosing, the mouse brain was removed, Methacarn-fixed (methanol:chloroform:acetic acid=6:3:1), and paraffin-embedded. Then, sections of 8 μm in thickness were prepared using a microtome.
The sections were immunostained with streptavidin-biotin using a VECTASTATIN ABC kit. After one hour of incubation in 10% normal goat serum, the anti-amyloid β (Aβ) antibody was diluted with PBS to ten fold and incubated at 4° C. overnight. The following day, PBS rinsing, 1.5 hours of incubation with biotinylated anti-rabbit secondary antibody, PBS rinsing, and 1.5 hours of incubation with peroxidase-labeled streptavidin were conducted. The immunoreaction was visualized with DAB and specimens were prepared.
Immunoreactive Aβ-like granules in the hippocampus were counted under the microscope. The Aβ-like immunoreactive granule was observed as brown deposits in the hippocampus. The count was made for one section per individual.

SMILES	amyloid β deposition (overall conclusion)
O=C1N=C2C=CC=CN2C12Cc1ccccc1C2 [Compound 1, spiro[imidazo[1,2-a]pyridin-2(3H)-one-3,2′-indan]]	inhibits amyloid β deposition

Same assay, conditions: hippocampus, one section per individual, oral 0.002, 0.01 and 0.1 mg/kg in drinking water for 2 months, FIG. 2

SMILES	number of amyloid β-immunoreactive granules
O=C1N=C2C=CC=CN2C12Cc1ccccc1C2 [Compound 1, spiro[imidazo[1,2-a]pyridin-2(3H)-one-3,2′-indan]]	significantly (*) decreased

Same assay, conditions: male, 8 months old, Compound 1 in drinking water at oral dosage of 0.002, 0.01 and 0.1 mg/kg/day for 2 months, vs tap water

SMILES	amyloid β-like immunoreactivity in the hippocampus
O=C1N=C2C=CC=CN2C12Cc1ccccc1C2 [Compound 1, spiro[imidazo[1,2-a]pyridin-2(3H)-one-3,2′-indan]]	reduced

System: not listed separately
Assay: preclinical study (safety)
Conditions: not given

SMILES	safety in the preclinical study
O=C1N=C2C=CC=CN2C12Cc1ccccc1C2 [Compound 1, spiro[imidazo[1,2-a]pyridin-2(3H)-one-3,2′-indan]]	highly safe

System: not given
Assay: not given
Conditions: not given

melting point	SMILES
167 to 171 °C	O=C1N=C2C=CC=CN2C12Cc1ccc(I)cc1C2 (stereo not shown) [Compound 58, spiro[imidazo[1,2-a]pyridin-2(3H)-one-3,2′-(5′-iodoindan)]]
247.7 °C (dec.)	N#Cc1cccc2c1CC1(C2)C(=O)N=C2C=CC=CN21 (stereo not shown) [Compound 59, spiro[imidazo[1,2-a]pyridin-2(3H)-one-3,2′-(4′-cyanoindan)]]
201 to 203 °C	O=C1N=C2c3ccccc3C=CN2C12Cc1ccccc1C2 [Compound 60, spiro[imidazo[2,1-a]isoquinolin-2(3H)-one-3,2′-indan]]
86 to 88 °C	O=C1N=C2C=CC=CN2C12Cc1cc3nsnc3cc1C2 [Compound 61, spiro[imidazo[1,2-a]pyridin-2(3H)-one-3,2′-((1,2,5-thiadiazo)[4,5-c]indan)]]
271.5 °C (dec.)	O=C1N=C2c3ccccc3C=CN2C12Cc1cc3nsnc3cc1C2 [Compound 62, spiro[imidazo[2,1-a]isoquinolin-2(3H)-one-3,2′-((1,2,5-thiadiazo)[4,5-c]indan)]]
195.5 °C (dec.)	O=C1N=C2N=CC=CN2C12Cc1ccccc1C2 [Compound 63, spiro[imidazo[1,2-a]pyrimidin-2(3H)-one-3,2′-indan]]
176.5 to 179.5 °C	O=C1N=C2C=CC=CN2C12Cc1ccc(C(F)(F)F)cc1C2 (stereo not shown) [Compound 64, spiro[imidazo[1,2-a]pyridin-2(3H)-one-3,2′-(5′-trifluoromethylindan)]]
256 °C (dec.)	O=C1N=C2C=CC=CN2C12Cc1ccc3ccccc3c1C2 (stereo not shown) [Compound 65, spiro[imidazo[1,2-a]pyridin-2(3H)-one-3,2′-benzo[e]indan]]
245 to 247 °C	O=C1N=C2C=CC=CN2C1(C1C=CCCC1)C1C=CCCC1 (stereo not shown) [Compound 67, 3,3-bis(2-cyclohexenyl)imidazo[1,2-a]pyridin-2(3H)-one]
108 to 110 °C	C=CCC1(CC=C)C(=O)N=C2c3ccccc3C=CN21 [Compound 68, 3,3-diallylimidazo[2,1-a]isoquinolin-2(3H)-one]
178.5 to 180.5 °C	O=C1N=C2C(OCc3ccccc3)=CC=CN2C12CC=CC2 [Compound 70, spiro[8-benzyloxyimidazo[1,2-a]pyridin-2(3H)-one-3,4′-(1′-cyclopentene)]]
218 to 220 °C	O=C1N=C2CCCCN2C1(C1CCCCC1)C1CCCCC1 [Compound 72, 3,3-dicyclohexyl-5,6,7,8-tetrahydroimidazo[1,2-a]pyridin-2(3H)-one]
35 to 40 °C	CCCCC1(CCCC)C(=O)N=C2CCCCN21 [Compound 73, 3,3-dibutyl-5,6,7,8-tetrahydroimidazo[1,2-a]pyridin-2(3H)-one]
270.5 °C (dec.)	O=C1N=C2C3=C(C=CN2C12CCCC2)CCCC3 [Compound 74, spiro[7,8,9,10-tetrahydroimidazo[2,1-a]isoquinolin-2(3H)-one-3,1′-cyclopentane]]
164.5 to 167.5 °C	O=C1N=C2c3ccccc3C=CN2C12CCCC2 [Compound 75, spiro[imidazo[2,1-a]isoquinolin-2(3H)-one-3,1′-cyclopentane]]
252.5 °C (dec.)	O=C1N=C2CCCCN2C12Cc1cc3ccccc3cc1C2 [Compound 76, spiro[5,6,7,8-tetrahydroimidazo[1,2-a]pyridin-2(3H)-one-3,2′-benzo[f]indan]]
276.5 °C (dec.)	O=C1N=C2CCCCN2C12Cc1ccccc1C2 [Compound 77, spiro[5,6,7,8-tetrahydroimidazo[1,2-a]pyridin-2(3H)-one-3,2′-indan]]
293 to 296 °C	O=C1N=C2C=CC=CN2C1(Cc1ccc(Cl)cc1)Cc1ccc(Cl)cc1 [Compound 78, 3,3-bis(4-chlorobenzyl)imidazo[1,2-a]pyridin-2(3H)-one]
139 to 142 °C	C=CCC1(CC=C)C(=O)N=C2C(OCC3CC3)=CC=CN21 [Compound 79, 8-cyclopropylmethyloxy-3,3-diallylimidazo[1,2-a]pyridin-2(3H)-one]
200 to 202 °C	COC1=CC=CN2C1=NC(=O)C21CC=CC1 [Compound 82, spiro[8-methoxyimidazo[1,2-a]pyridin-2(3H)-one-3,4′-(1′-cyclopentene)]]
134 to 137 °C	O=C1N=C2C(OCC3CC3)=CC=CN2C12CC=CC2 [Compound 83, spiro[8-cyclopropylmethyloxyimidazo[1,2-a]pyridin-2(3H)-one-3,4′-(1′-cyclopentene)]]
